What was measured:
[1] = test system: LRRK2 Ser935 phosphorylation; assay: Ser935 phosphorylation in HEK293 cells overexpressing wild-type LRRK2; assay type: cell-based, human; details: 1 μM
Method: Cell extracts were mixed with a quarter of a volume of NuPage LDS Sample buffer 4× Invitrogen and heated at 95°C for 5 min. […] At the end of electrophoresis, proteins were electrophoretically transferred onto the nitrocellulose membrane (GE Healthcare, Amersham Protran Supported 0.45 µm NC) at 100 V for 90 min on ice in the transfer buffer (48 mM Tris–HCl and 39 mM glycine supplemented with 20% methanol). Transferred membrane was blocked with 5% (w/v) skim milk powder dissolved in TBS-T [20 mM Tris–HCl, pH 7.5, 150 mM NaCl and 0.1% (v/v) Tween 20] at room temperature for 1 h. The membrane was typically cropped into three pieces, namely the ‘top piece’ (from the top of the membrane to 75 kDa), the ‘middle piece’ (between 75 and 30 kDa) and the ‘bottom piece’ (from 30 kDa to the bottom of the membrane). All primary antibodies were used at 1 μg/ml final concentration and incubated in TBS-T containing 5% (by mass) bovine serum albumin with exception of α-tubulin and GAPDH antibodies that were diluted 1 : 5000 and 1 : 2000, respectively. The top piece was incubated with the indicated rabbit anti-LRRK2 phosphorylation site antibody multiplexed with mouse anti-LRRK2 C-terminus total antibody. […] Protein bands were acquired via near infrared fluorescent detection using the Odyssey CLx imaging system and quantified using the Image Studio software. […]

[2] = test system: Dundee panel of 140 protein kinases; assay: Kinase profiling; assay type: biochemical
Text: […] Results for each kinase are presented as the mean kinase activity ±S.D. for an assay undertaken in duplicate relative to a control kinase assay in which the inhibitor was omitted. Abbreviations and assay conditions used for each kinase are available (http://www.kinase-screen.mrc.ac.uk/services/premier-screen).

[3] = test system: basal mitophagy, wild type MEFs; assay: mito-QC basal mitophagy in wild-type primary MEFs; assay type: cell-based, mouse; details: 24 h, 30–300 nM GZD-824, GSK3357679A 100 nM positive control
Method: (§1) To assess mitophagy, wild type, G2019S knock in, and LRRK2 knock out primary mouse embryonic fibroblasts (MEFs) were derived, from time-mated pregnant females at E12.5 as previously described. Briefly, cells were plated on glass coverslips and incubated with DMEM (Gibco, 11960-044) supplemented with 10% FBS, 2 mM L-Glutamine (Gibco, 2503-081), 1% non-essential amino acids (Gibco, 11140-035), 1% Antibiotics (Penicillin/Streptomycin 100 U/ml penicillin and 100 µg/ml streptomycin; Gibco), and 150 µM β-Mercaptoethanol (Gibco, 21985-023) at 37°C under a humidified 5% CO2 atmosphere. […] GSK3357679A 100 nM (Ding et al., in prep) was used as a positive control. At the end of the treatment, MEFs were briefly washed twice in DPBS (Gibco, 14190-094), and fixed in 3.7% Paraformaldehyde pH 7.00 (Sigma, P6148), 200 mM HEPES, for 20 min. Cells were then washed two times with DMEM, 10 mM HEPES, and then incubated for 10 min with DMEM, 10 mM HEPES. […] Images were acquired using a Nikon Eclipse Ti-S fluorescence microscope with a 63× objective. Images were analyzed using the mito-QC counter as previously described. Experiments were performed in 3–4 independent experiments and data was analyzed with a one-way ANOVA followed by a Dunnett's multiple comparison test using the GraphPad Prism software (version 8.4.3 (686)).

[4] = test system: basal mitophagy, LRRK2[G2019S] MEFs; assay: mito-QC basal mitophagy in LRRK2[G2019S] knock-in primary MEFs; assay type: cell-based, mouse; details: 24 h, 30–300 nM GZD-824, GSK3357679A 100 nM positive control
Method: as §1

[5] = test system: Rab29 mediated relocalization of LRRK2 to the Golgi apparatus; assay: Rab29 mediated recruitment of LRRK2 to the Golgi, immunofluorescence in HeLa cells; assay type: cell-based, human; details: 5 μM GZD-824 or 1 μM GSK3357679A for 4 h
Method: HeLa cells were seeded on coverslips and transfected with the plasmid reported in each image 24 h before fixation. Following the treatments with the inhibitors described in figure legends, cells were washed twice in DPBS and fixed with 3.7% Paraformaldehyde pH 7.3 (Agar scientific, #R1026), 200 mM HEPES, for 20 min. Cells were then washed twice with DMEM, 20 mM HEPES, and then incubated for 10 min with DMEM, 10 mM HEPES. After two washes in DPBS, fixed cells were permeabilized with 0.2% (by vol) NP-40 in DPBS for 10 min. Cells were blocked using 1% (by mass) BSA in DPBS, then incubated for 1 h with primary antibodies diluted in 1% (by mass) BSA in DPBS, washed three times in 0.2% (by mass) BSA in DPBS, and incubated for 1 h with secondary antibodies. The coverslips were washed three times with 0.2% (by mass) BSA in PBS. Coverslips were washed once more in double distilled water and mounted on slides (VWR, #631-0909) using ProLong™ Diamond Antifade Mountant (ThermoFisher, #P36961). For localization of the Golgi compartment, Golgin-97 was stained with rabbit anti-GM97 (CST, #D8P2K) and visualized with goat anti-rabbit conjugated to Alexa Fluor 405 (Life Technologies, #P10994). HA-Rab29 was stained with mouse anti-HA (Abcam, clone HA.C5 #ab18181) and visualized with goat anti-mouse conjugated to Alexa Fluor 594 (Life Technologies, #A-11032). […]

[6] = test system: basal mitophagy, LRRK2 knock-out MEFs; assay: mito-QC basal mitophagy in LRRK2 knock-out primary MEFs; assay type: cell-based, mouse; details: 24 h
Method: as §1

Flag-LRRK2[G2019S] = molecular target: T1, Flag-LRRK2[G2019S] (Homo sapiens, UniProt Q5S007, G2019S); assay: IC50 LRRK2 Nictide assay, G2019S; assay type: biochemical; details: read-out: IC50 LRRK2 G2019S (100 µM ATP), Nictide peptide substrate, value ± SD
T1 construct: towards full length wild type and G2019S pathogenic LRRK2 mutant in a biochemical assay; Flag (N); purchased ThermoFisher Scientific A15201
T1 sequence (Q5S007 whole entry G2019S): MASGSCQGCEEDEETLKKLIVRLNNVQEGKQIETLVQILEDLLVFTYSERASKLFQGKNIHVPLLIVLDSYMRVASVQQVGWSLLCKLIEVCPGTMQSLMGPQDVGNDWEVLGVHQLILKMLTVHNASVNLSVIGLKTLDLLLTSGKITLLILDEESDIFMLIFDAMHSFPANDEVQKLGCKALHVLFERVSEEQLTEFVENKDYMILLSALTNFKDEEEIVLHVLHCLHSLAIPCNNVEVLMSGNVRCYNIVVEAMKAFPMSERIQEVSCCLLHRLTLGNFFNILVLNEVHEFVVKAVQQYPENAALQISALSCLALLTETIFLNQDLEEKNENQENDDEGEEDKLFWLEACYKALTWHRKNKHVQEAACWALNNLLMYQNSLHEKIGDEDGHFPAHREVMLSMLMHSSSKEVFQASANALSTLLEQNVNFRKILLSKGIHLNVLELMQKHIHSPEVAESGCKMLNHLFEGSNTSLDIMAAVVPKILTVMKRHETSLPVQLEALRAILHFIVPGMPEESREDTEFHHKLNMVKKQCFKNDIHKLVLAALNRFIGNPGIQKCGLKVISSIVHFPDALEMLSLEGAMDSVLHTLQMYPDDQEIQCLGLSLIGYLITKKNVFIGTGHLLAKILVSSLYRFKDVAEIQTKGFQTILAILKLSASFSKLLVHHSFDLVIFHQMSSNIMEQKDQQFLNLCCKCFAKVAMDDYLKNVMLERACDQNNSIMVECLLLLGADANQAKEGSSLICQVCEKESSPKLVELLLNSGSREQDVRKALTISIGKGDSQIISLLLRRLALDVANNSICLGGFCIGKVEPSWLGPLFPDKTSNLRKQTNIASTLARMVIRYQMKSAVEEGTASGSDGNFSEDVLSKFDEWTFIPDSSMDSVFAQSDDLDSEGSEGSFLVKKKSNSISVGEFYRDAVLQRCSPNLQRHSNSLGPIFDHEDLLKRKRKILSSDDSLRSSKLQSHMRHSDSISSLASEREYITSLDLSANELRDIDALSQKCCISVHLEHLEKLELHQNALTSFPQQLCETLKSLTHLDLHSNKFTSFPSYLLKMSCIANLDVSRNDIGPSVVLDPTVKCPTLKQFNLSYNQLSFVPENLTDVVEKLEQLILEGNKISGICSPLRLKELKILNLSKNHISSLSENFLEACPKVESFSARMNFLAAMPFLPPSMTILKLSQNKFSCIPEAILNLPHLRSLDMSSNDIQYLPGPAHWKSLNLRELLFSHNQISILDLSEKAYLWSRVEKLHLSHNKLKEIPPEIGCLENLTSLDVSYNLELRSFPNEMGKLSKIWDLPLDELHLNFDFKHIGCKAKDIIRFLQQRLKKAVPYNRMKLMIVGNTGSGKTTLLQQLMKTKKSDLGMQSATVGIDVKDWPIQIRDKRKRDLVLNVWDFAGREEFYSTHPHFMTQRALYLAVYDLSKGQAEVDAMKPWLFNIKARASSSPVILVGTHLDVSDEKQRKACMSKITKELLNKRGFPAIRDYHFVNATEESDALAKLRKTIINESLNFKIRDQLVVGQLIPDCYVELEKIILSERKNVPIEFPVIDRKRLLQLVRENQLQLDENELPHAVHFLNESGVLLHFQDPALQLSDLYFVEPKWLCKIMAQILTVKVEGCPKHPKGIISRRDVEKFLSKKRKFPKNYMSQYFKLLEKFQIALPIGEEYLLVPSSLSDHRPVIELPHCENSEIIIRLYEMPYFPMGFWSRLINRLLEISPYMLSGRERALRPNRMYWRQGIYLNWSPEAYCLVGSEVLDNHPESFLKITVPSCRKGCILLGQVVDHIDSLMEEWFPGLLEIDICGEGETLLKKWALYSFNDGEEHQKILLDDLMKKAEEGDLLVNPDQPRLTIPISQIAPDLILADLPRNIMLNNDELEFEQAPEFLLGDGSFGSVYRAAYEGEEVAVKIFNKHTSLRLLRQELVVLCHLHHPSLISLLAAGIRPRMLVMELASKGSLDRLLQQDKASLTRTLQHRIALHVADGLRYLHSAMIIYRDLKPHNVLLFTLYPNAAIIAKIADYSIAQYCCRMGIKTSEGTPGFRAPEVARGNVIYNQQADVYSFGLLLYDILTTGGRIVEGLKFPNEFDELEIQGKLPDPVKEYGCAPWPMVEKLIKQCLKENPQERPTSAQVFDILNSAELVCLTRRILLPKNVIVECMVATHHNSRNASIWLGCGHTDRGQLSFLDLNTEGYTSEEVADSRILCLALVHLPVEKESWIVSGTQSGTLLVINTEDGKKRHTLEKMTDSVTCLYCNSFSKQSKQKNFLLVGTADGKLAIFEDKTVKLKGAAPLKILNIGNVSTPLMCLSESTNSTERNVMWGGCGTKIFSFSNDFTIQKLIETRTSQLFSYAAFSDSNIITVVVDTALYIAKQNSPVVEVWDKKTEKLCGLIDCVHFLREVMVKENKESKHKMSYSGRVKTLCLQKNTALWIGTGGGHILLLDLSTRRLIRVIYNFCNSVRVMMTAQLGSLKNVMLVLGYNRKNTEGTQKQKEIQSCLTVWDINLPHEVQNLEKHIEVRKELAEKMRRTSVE

LRRK2 14-3-3 binding = test system: T2, LRRK2 14-3-3 binding; assay: Analysis of 14-3-3 binding in HEK293 cells overexpressing wild-type LRRK2; assay type: cell-based, human; details: 5 μM GZD-824 for 4 h, 1 μM GSK3357679A
T2 construct: host or cells: HEK293
Method: This was undertaken as described previously. Briefly, wild-type FLAG-LRRK2 was transiently expressed in HEK293 cells with HA-Rab29. Twenty-four hours post-transfection cells were lysed with lysis buffer and snap frozen. LRRK2 was immunoprecipitated from 4 mg of lysate using 20 μl anti-FLAG-M2 agarose beads (Sigma, #A2220) for 2 h in rotation at +4°C. Immunoprecipitates were washed once with lysis buffer supplemented with 0.5% (by vol) Nonidet P-40 (instead of Triton X-100) and 0.5 M NaCl followed by two washes. Samples were eluted in 2× LDS sample buffer (20 µl per 10 µl of resin) and heated at 70°C for 10 min. After centrifugation through 0.22 µm Spin X filter, the eluted protein was subjected to immunoblotting with the indicated antibodies. An amount of 10 μl of the final reaction mixture was needed for the detection of binding of endogenous 14-3-3 and 1 µl for detection of LRRK2.

wild-type Flag-LRRK2 = molecular target: T3, wild-type Flag-LRRK2 (Homo sapiens, UniProt Q5S007); assay: IC50 LRRK2 Nictide assay, wild type; assay type: biochemical
T3 construct: Human recombinant full length wild-type Flag-LRRK2 (#A15198); Flag (N); purchased ThermoFisher Scientific A15198
T3 sequence (Q5S007 whole entry): as the sequence (Q5S007 whole entry G2019S) above, with S2019G counted along it
Method: (#A15201) purchased from ThermoFisher Scientific. […] After incubation for 30 min at room temperature, reactions were terminated by harvesting the whole reaction volume onto P81 phosphocellulose filter plate and immersion in 50 mM phosphoric acid. […] IC50 values were calculated with GraphPad Prism using non-linear regression analysis.

## GSK3357679A
[1]
  effect on Ser935 phosphorylation: ablated
[2]
  kinase selectivity (panel of 140 protein kinases): highly selective
[3]
  stimulation of basal mitophagy: ~2 fold
[4]
  stimulation of basal mitophagy: ~2 fold
[5]
  impact on Rab29 mediated recruitment of LRRK2 to the Golgi: no impact
[6]
  impact on basal mitophagy in LRRK2 knock-out cells: neither GZD-824 or GSK3357679A impacted basal mitophagy
Flag-LRRK2[G2019S]
  IC50: 0.34 nM
LRRK2 14-3-3 binding
  impact on 14-3-3 binding to LRRK2: ablated
wild-type Flag-LRRK2; Nictide peptide substrate, value ± SD
  IC50 LRRK2 WT (100 µM ATP): sub-nanomolar potency
wild-type Flag-LRRK2; read-out: IC50 LRRK2 WT (100 µM ATP), Nictide peptide substrate, value ± SD
  IC50: 0.3 nM
